Measured values taken from US10265421B2, “Hyperpolarized esters as metabolic markers in MR” (BRACCO IMAGING S.P.A., priority 2013, dated 2019).

Tests used:
[1] = DNP conversion of hyperpolarized substrates in rat blood; type: in vitro ADME; settings: 2.5 ml rat blood, approx. 5 mM substrate
Procedure: (§1) In all experiments 2.5 ml human blood or 2.5 ml rat blood was used. […] Data are presented as area under the curve of the metabolites divided by the substrate signal in the first spectrum and multiplied by 100 to obtain the unit, DNP conversion in percentage.

[2] = DNP conversion of hyperpolarized substrates in human blood; type: in vitro ADME; settings: 2.5 ml human blood, approx. 5 mM substrate
Procedure: as §1

[3] = tested on: rat cancer cells; assay: Concentration dependent metabolism of hyperpolarized substrates in rat cancer cells; type: cell-based; settings: approx. 1, 3.5 and 10 mM, 10 million cells, maximum peak intensity
Source text: In all experiments 10 million cells were used. The experimental set-up from Example 2.b was applied. Data are shown as maximum peak intensity of either substrate or metabolite signals.

[4] = tested on: CE1 from pig's liver; assay: Carboxyl esterase activity on different ethyl esters (1H NMR); type: biochemical; settings: 26 μmol substrate, pH 7.5, 37° C., 60 min
Procedure: The experiments were performed with commercially available CE1 from pig's liver.
The ethyl esters used as substrates are: ethyl acetoacetate (EAA); ethyl acetate (EA); ethyl butyrate (EB); ethyl pyroglutamate (EPG); ethyl pyruvate (EP); diethyl succinate (DES).
Individual samples of the substrates were all made in the following way: 26 μmol was weighted in an eppendorf tube. 550 μl deuterated phosphate buffer (200 mM, pH 7.5) was added and the substrate was brought into solution by whirl mixing. The solution was transferred to a 5 mm NMR tube and inserted in the spectrometer at 37° C. A reference experiment was acquired on the substrate solution without enzyme after which 10 μl of an esterase stock solution (37 U/ml in deuterated phosphate buffer) was added in the top of the tube. The sample was mixed and returned to the spectrometer. A series of thermal 1D 1H NMR experiments were recorded every 5 min for 60 min. The data were analyzed and presented as peak intensity of the product scaled to the peak intensity of the substrate signal in the first spectrum.

[5] = non-tumor and tumor bearing mice; cited from earlier work
[6] = tested on: rat liver cancer cells (Morris7777); assay: In cell DNP conversion of hyperpolarized substrate in rat liver cancer cells; type: cell-based; settings: whole Morris7777 cells, 10 million cells, 3.5 mM substrate, 37° C.
Procedure: (§2) To the solution was added a DMSO solution of gadolinium complex [[α1,α4,α7-tris[(phenylmethoxy)methyl]-1,4,7,10-tetraazacyclododecane-1,4,7,10-tetraacetate(4-)]gadolinate(1-)]hydrogen (1.1 mg of a 100 μmol/g solution). The concentration of radical and gadolinium were 17 mM and 2.3 mM respectively.
(§3) B) 30 μmol of solution A) was hyperpolarized. The sample was dissolved in 5 ml phosphate buffer (40 mM, pH 7.3). The pH after dissolution was 7.3.
(§4) A) 10 million cells (either rat liver cancer cells (Morris7777) or human liver cancer cells (HEP-G2)) were harvested and redissolved in […] phosphate buffer (PBS). The cells in suspension were transferred to a 10 mm NMR tube and placed with a connecting tubing in a 14.1 T magnet at 37° C.
(§5) A series of 30 degree pulses every 2 s (56 scans in total) was acquired. The acquisition was started just before injection of the hyperpolarized substrate.
The two substrates were co-polarized without mixing the substrates. Following dissolution in 5 ml phosphate buffer (40 mM pH 7.3) with addition of 2.5 μl NaOH to neutralize the pyruvic acid (which is thus converted into the pyruvate anion form), the substrate mixture was injected into 10 million cells in suspension. The experiment was performed as described in Example 2.b. […]

[7] = tested on: human liver cancer cells (HepG2); assay: In cell DNP conversion of hyperpolarized substrate in human liver cancer cells; type: cell-based; settings: whole HepG2 cells, 10 million cells, 3.5 mM substrate, 37° C.
Procedure: as §2, §3, §4, §5

[8] = tested on: carboxylesterase; assay: In vivo localized dynamic 13C MRS in healthy liver and liver cancer; set-up: species or system rat; settings: 0.4 mmol/kg i.v.
Procedure: One million McA-RH7777 cells have been suspended in 0.2 mL of Dulbecco's Modified Eagle's Medium (DMEM) and injected under the hepatic capsula of the liver left lobe of anesthetized Buffalo rats.
The sample was dissolved in 5 ml TRIS buffer (40 mM, pH 7) added with EDTA 100 mg/l. The pH after dissolution was 7.5.
A total of 8 animals were used in the study. 4 rats were implanted with the tumour (i.e. tumour group) whereas the remaining animals were used as controls (i.e. liver group) in order to have a comparison between healthy and diseased tissue on the same strain. The metabolic fate of injected ethyl [1,3-^13C2]-acetoacetate was followed by means of a localised spectroscopy sequence which allows a selective acquisition of either tumour or healthy liver tissue. Acquisition started just before injecting the hyperpolarized substrate and comprised a series of 64 time-domain points sampled at a rate of 3 s. The applied flip angle was equal to 10 degrees.

[9] = anesthetized rat; cited from earlier work
[10] = tested on: carboxylesterase; assay: In vivo 13C CSI in rat liver with implanted Morris7777 tumor
Procedure: 4 anesthetized Buffalo rats were injected under the hepatic capsula of the liver left lobe with one million McA-RH7777 cells suspended in 0.2 mL of Dulbecco's Modified Eagle's Medium (DMEM) medium.
The sample was dissolved in 5 ml TRIS buffer (40 mM, pH 7) added with EDTA 100 mg/I. The pH after dissolution was 7.5.
Chemical Shift Imaging (CSI) maps were acquired on a approx. 8 mm coronal slice placed in the abdominal region of the rat. The in plane field of view was set to 40×55 mm^2 and the corresponding matrix size was 14×14.

[11] = tested on: carboxylesterase; assay: General carboxylesterase activity in sonicated cancer cells (spectrophotometric, NA substrate); type: biochemical; settings: liver cancer cells (rat and human) and prostate cancer cells; 1 mM substrate, 10 min, 30 degrees
Procedure: General carboxylesterase activity was determined spectrophotometrically using the carboxylesterase substrate 1-naphthyl acetate (NA) as described previously (Rudakova, 2011). Briefly, sonicated cells were incubated with 1 mM substrate in 150 mM phosphate buffer (pH 7.5), and generation of 1-naphtol was monitored at 322 nm and quantified from its extinction coefficient (2200 M−1 cm−1). The reaction is allowed to take place for 10 min at 30 degrees. […] Cells of different origin (rat hepatoma, Morris; human hepatoma, HepG2; human prostate carcinoma, PC-3; human breast carcinoma, MCF-7) were harvested and redissolved in phosphate buffer to a concentration of 10 million cells/ml. The sample composition was as follows: 923 μl phosphate buffer (150 mM pH 7.3)+77 μl NA solution (13 mM in acetone)+100 μl cells in suspension. The absorbance of the samples were compared to reference samples where acetone was added instead of substrate. The esterase activity was calculated using the extinction coefficient ε322=2200 M^−1 cm^−1.

For `CC(=O)C(=O)O` [[1-^13C]-pyruvate, reference compound], the “build-up of metabolite signal in rat blood” value [1] was “build-up of lactate is significant”, the “build-up of metabolite signal in human blood” value [2] was “build-up of lactate is significant” and the “change of metabolite signal with increasing substrate concentration” value [3] was “unchanged going from 3 mM to 10 mM”.

In the case of `CCOC(=O)CCC(=O)OCC` [diethyl succinate], the “conversion (turnover) by CE1” value [4] is reported as “overall fastest converted substrate”.

For `CCO[13C](=O)C[13C](C)=O` [ethyl [1,3-^13C2]-acetoacetate], the conversion in vivo [5] is given as “rapidly converted into acetoacetate”, the “build-up of hyperpolarized acetoacetate anion from hydrolysis” value [6] is given as “possible to follow the build-up of the product” and the “build-up of hyperpolarized acetoacetate anion from hydrolysis” value [7] is given as “possible to follow the build-up of the product”. The “ramping up rate of metabolite signal, healthy liver with respect to cancer tissue” value ([8]; localized spectroscopy) was at least 2 and the “uptake and conversion in liver cells in vivo” value ([8]; healthy and diseased liver) was “taken up by both healthy and diseased liver cells and converted into its hyperpolarized metabolite”.

In the case of `CCO[13C](=O)C(C)=O` [ethyl [1-^13C]-pyruvate], the uptake into brain [9] is listed as “rapid and preferential”.

With `CCOC(C)=O` [ethyl acetate] the “factor by which diethyl succinate is converted faster than this substrate” value (shortened to “factor”) [4] was “ten times faster converted”.

In the case of `CCOC(=O)CC(C)=O` [ethyl acetoacetate], the “build-up of metabolite signal in rat blood” value [1] is reported as “conversion of ethyl acetoacetate is seen”, the “factor” value [4] is reported as about 2 and the “build-up of metabolite signal in human blood” value [2] is reported as “no build-up of metabolite signal could be measured”. The “change of metabolite signal with increasing substrate concentration” value [3] was “increases almost quantitatively with increasing substrate concentration”, the “distribution of substrate signal (CSI map)” value ([10]; Morris hepatocellular carcinoma bearing rat, 0.4 mmol/kg i.v., 20 s acquisition) was “mainly observed in the tumour mass” and the “conversion in healthy liver during acquisition” value ([10]; healthy liver, 20 s acquisition time) was “almost completely converted”. The “carboxyl esterase activity (capacity of cells to hydrolyse substrate)” value [11] was “up to 95 mU/million cells”.

In the case of `CCCC(=O)OCC` [ethyl butyrate], the “factor” value [4] is reported as about 2.

For `CCOC(=O)[C@@H]1CCC(=O)N1` [ethyl pyroglutamate], the “conversion (turnover) by CE1” value [4] was “barely detectable”.

With `CCOC(=O)C(C)=O` [ethyl pyruvate, reference compound] the “conversion (turnover) by CE1” value [4] was “no conversion at all could be measured”.

For `CCOC(=O)CCC(=O)O` [mono-ester], the “conversion (turnover) by CE1” value [4] was “not a substrate for CE1”.
